Assay results taken from the NIST ThermoML archive (doi:10.1021/je600519p).

Experiment: refractive index (Na D-line) (dimensionless); xn = mol fraction of the nth substance listed
Details: 101 kPa, Liquid

CC(=O)c1ccccc1 [acetophenone] + CCCCCCO
refractive index
Details	293.15 K	303.15 K	313.15 K	323.15 K
x1 = 0.0498	1.4234	1.4196	1.4153	1.4113
x1 = 0.1009	1.4291	1.4253	1.421	1.417
x1 = 0.1517	1.4348	1.431	1.4267	1.4227
x1 = 0.2106	1.4415	1.4377	1.4334	1.4293
x1 = 0.2474	1.4457	1.4419	1.4376	1.4335
x1 = 0.3028	1.4521	1.4482	1.4439	1.4398
x1 = 0.3426	1.4567	1.4528	1.4484	1.4443
x1 = 0.3978	1.4631	1.4591	1.4547	1.4506
x1 = 0.4512	1.4693	1.4653	1.4608	1.4567
x1 = 0.4985	1.4748	1.4707	1.4662	1.4621
x1 = 0.5526	1.4811	1.4769	1.4724	1.4682
x1 = 0.6071	1.4874	1.4832	1.4786	1.4743
x1 = 0.6491	1.4923	1.488	1.4834	1.479
x1 = 0.7101	1.4994	1.495	1.4903	1.4858
x1 = 0.7485	1.5039	1.4994	1.4947	1.4901
x1 = 0.8019	1.5101	1.5056	1.5008	1.4962
x1 = 0.8521	1.516	1.5114	1.5066	1.5019
x1 = 0.9045	1.5222	1.5175	1.5126	1.5079
x1 = 0.9554	1.5283	1.5235	1.5185	1.5137

CC(=O)c1ccccc1 [acetophenone] + CCOC(=O)OCC
refractive index
Details	293.15 K	303.15 K	313.15 K	323.15 K
x2 = 0.0511	1.5269	1.5221	1.5172	1.5123
x2 = 0.1014	1.5201	1.5154	1.5107	1.506
x2 = 0.1501	1.5134	1.5089	1.5043	1.4998
x2 = 0.1996	1.5065	1.5022	1.4976	1.4932
x2 = 0.2465	1.5001	1.4958	1.4913	1.4869
x2 = 0.3041	1.4919	1.4877	1.4833	1.479
x2 = 0.3467	1.4858	1.4817	1.4774	1.4731
x2 = 0.4001	1.4781	1.474	1.4697	1.4656
x2 = 0.4507	1.4707	1.4666	1.4624	1.4583
x2 = 0.4888	1.4651	1.461	1.4568	1.4527
x2 = 0.5506	1.4558	1.4518	1.4475	1.4435
x2 = 0.6038	1.4477	1.4437	1.4395	1.4353
x2 = 0.6498	1.4406	1.4366	1.4323	1.4282
x2 = 0.7104	1.4312	1.4271	1.4228	1.4186
x2 = 0.7513	1.4247	1.4206	1.4164	1.4121
x2 = 0.8078	1.4158	1.4116	1.4072	1.4029
x2 = 0.8522	1.4086	1.4043	1.3999	1.3957
x2 = 0.8993	1.401	1.3966	1.3922	1.3878
x2 = 0.9488	1.3929	1.3884	1.3839	1.3791

CCOC(=O)OCC [diethyl carbonate] + CCCCCCO
refractive index
Details	293.15 K	303.15 K	313.15 K	323.15 K
x1 = 0.0502	1.4168	1.4131	1.4089	1.4049
x1 = 0.1123	1.4152	1.4115	1.4075	1.4036
x1 = 0.1499	1.4143	1.4106	1.4065	1.4026
x1 = 0.2103	1.4125	1.4088	1.4047	1.4007
x1 = 0.2508	1.4111	1.4074	1.4034	1.3994
x1 = 0.3121	1.4089	1.4051	1.4011	1.3971
x1 = 0.3576	1.4071	1.4033	1.3992	1.3953
x1 = 0.4113	1.4049	1.4011	1.3969	1.3931
x1 = 0.4632	1.4028	1.3989	1.3947	1.3909
x1 = 0.5111	1.4008	1.3969	1.3927	1.3887
x1 = 0.552	1.3991	1.3952	1.3909	1.3868
x1 = 0.6008	1.3972	1.3931	1.3888	1.3846
x1 = 0.6498	1.3953	1.3911	1.3867	1.3825
x1 = 0.7108	1.3929	1.3887	1.3842	1.3798
x1 = 0.7554	1.3912	1.387	1.3825	1.3779
x1 = 0.8112	1.3894	1.3851	1.3805	1.3758
x1 = 0.8501	1.3883	1.3838	1.3792	1.3745
x1 = 0.9002	1.3869	1.3823	1.3776	1.3729
x1 = 0.9555	1.3855	1.3809	1.3762	1.3714
